EC50, IC50 and AC50 data for 18 compounds are collected here from ChEMBL document CHEMBL1201862, “PubChem BioAssay data set” (2004).

SMILES strings stand for the structures. Activity calls are given as the source filed them.

The nature of test [1]: Luminescence Cell-Based Dose Confirmation HTS to Identify Activators of 5'UTR Stem-Loop Driven Alpha-Synuclein mRNA Translation in H4 Neuroglioblastoma Cells. [Related pubchem assays: 1829 (Project Summary), 1814 (Primary HTS)]. It counts as functional.
A short description of test [2]: Luminescence Cell-Based Dose Response HTS to Identify Activators of Luciferase Translation or Activity in H4 […] Cells. [Related pubchem assays: 1829 (Project Summary), 1814 (Primary HTS)]. It counts as functional.
Another test relates to H4. Nature of the test: Luminescence Cell-Based Dose Response HTS to Identify Activators of 5'UTR Stem-Loop Driven Prion Protein mRNA Translation in H4 Neuroglioblastoma Cells. [Related pubchem assays: 1829 (Project Summary), 1814 (Primary HTS)]. The test is classed as functional. To be noted: Homo sapiens.
Test [3] can be described thus: viability of PTEN-deleted HCT116 cells – cell-based, HCT116 PTEN knockout, dose response (AID 1047).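 Further: HCT116 colon tumor cells with PTEN knocked out; cells exposed to compound for 60 hours before readout; potency for loss of cell viability measured by luminescence.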 It counts as functional.
Test [4] can be described thus: viability of HCT116 lacking mutant beta-catenin – cell-based, human colon tumor, dose response (AID 1045).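 Further: HCT116 colon tumor cells with beta catenin knocked out; cells exposed to compound for 60 hours.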 The test is classed as functional.
Test [5] deals with T1, Corticotropin-releasing factor receptor 2/Corticotropin-releasing factor-binding protein (Homo sapiens, UniProt P24387+Q13324).
T1 sequence (Q13324 whole entry): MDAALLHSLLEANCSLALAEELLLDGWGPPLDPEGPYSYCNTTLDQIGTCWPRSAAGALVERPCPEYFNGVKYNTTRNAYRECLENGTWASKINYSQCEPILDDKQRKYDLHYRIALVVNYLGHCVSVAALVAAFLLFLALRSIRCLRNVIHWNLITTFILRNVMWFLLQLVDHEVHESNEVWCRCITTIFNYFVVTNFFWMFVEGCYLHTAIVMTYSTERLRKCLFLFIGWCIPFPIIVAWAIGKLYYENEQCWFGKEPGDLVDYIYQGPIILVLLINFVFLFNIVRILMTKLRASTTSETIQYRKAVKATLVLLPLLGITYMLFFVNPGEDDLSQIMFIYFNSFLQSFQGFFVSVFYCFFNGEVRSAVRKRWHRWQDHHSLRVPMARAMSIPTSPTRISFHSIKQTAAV
T1 sequence (P24387 whole entry): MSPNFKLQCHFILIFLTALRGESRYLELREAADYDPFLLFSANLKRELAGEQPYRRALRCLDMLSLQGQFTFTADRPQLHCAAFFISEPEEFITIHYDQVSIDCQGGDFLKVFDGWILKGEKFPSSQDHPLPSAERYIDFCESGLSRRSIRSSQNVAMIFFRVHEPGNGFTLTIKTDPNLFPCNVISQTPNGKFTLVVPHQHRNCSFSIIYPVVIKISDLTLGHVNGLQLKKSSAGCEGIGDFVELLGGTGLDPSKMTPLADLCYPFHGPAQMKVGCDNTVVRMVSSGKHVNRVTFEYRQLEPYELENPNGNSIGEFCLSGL
Nature of the test: Dose Response confirmation of uHTS hits for small molecule antagonists of the CRF-binding protein and CRF-R2 receptor complex. As to conditions: read-out: IC50_Mean. The test is classed as functional.

Test [6] concerns the target T1, Corticotropin-releasing factor receptor 2/Corticotropin-releasing factor-binding protein. Nature of the test: activators of CRF receptor 2 with binding protein – uHTS hits, confirmation (AID 602473). It counts as functional. To be noted: read-out: EC50_Mean.
The nature of test [7]: blockers of CRF-binding protein–CRF-R2 complex – cell-based, uHTS hits, 384-well, dose response (AID 651639). The test is classed as functional, Homo sapiens. To be noted: read-out: IC50_Mean.
The nature of test [8]: luciferase reporter signal suppression in cells – H4 neuroglioma cells, luminescence, dose response (AID 1990). It counts as functional, cell-based. Background: A reporter such as luciferase makes a cellular process visible.
The nature of test [9]: Luminescence Cell-Based Dose Response HTS to Identify Inhibitors of 5'UTR Stem-Loop Driven Prion Protein mRNA Translation in H4 Neuroglioblastoma Cells. [Related pubchem assays: 1827 (Project Summary), 1813 (Primary HTS)]. The test is classed as functional.
Test [10] has as its target T2, Microphthalmia-associated transcription factor (Homo sapiens, UniProt O75030).
T2 sequence (O75030 whole entry): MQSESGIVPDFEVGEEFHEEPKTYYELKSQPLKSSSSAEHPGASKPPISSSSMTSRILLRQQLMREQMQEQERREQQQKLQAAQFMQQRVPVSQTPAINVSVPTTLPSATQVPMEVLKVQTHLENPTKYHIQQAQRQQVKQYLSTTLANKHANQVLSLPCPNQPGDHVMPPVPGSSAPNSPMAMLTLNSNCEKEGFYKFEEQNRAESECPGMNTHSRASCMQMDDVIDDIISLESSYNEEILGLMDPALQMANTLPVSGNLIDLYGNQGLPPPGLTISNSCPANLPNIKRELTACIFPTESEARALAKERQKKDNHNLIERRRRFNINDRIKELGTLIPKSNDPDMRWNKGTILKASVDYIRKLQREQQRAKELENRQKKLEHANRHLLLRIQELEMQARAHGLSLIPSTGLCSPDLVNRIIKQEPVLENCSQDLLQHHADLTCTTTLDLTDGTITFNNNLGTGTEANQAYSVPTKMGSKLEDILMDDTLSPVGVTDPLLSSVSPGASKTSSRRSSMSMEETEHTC
Kind of test: reducers of TRPM1 reporter luminescence, concentration series – cell-based, SK-MEL-5, cherry-picked, set 3, MITF inhibitor project, dose response (AID 493073).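 Further: SK-MEL-5 melanoma cells with luciferase driven by the MITF target TRPM1 promoter.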 The test is classed as functional.

Test [11] in a line: alpha-synuclein stem-loop luciferase translation blockers – H4 neuroglioma cells, luminescence, confirmation (AID 1988). It counts as functional, cell-based.
Test [12] deals with FAD-linked sulfhydryl oxidase ALR (Homo sapiens, UniProt P55789). Nature of the test: ALR-catalysed DTT oxidation blockers – biochemical, H2O2 detection, luminescence, cherry-pick, dose response (AID 493248).
The nature of test [13]: blockers of HIV-1 envelope-mediated cell-cell fusion – cherry-pick, dose response (AID 652057). The test is classed as functional, cell-based.
The nature of test [14]: HIV-1 AD8 envelope cell-cell fusion blockers – cherry-pick, dose response (AID 652062).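 Further: luciferase signal from cell-cell fusion driven by HIV-1 clade B AD8 Env; potency is for inhibitors of fusion seen as a drop in luminescence.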 The test is classed as functional, cell-based.
A short description of test [15]: P. falciparum Dd2 growth inhibitors, dose response, SYBR Green, cherry-picked samples (AID 1159567). The test is classed as functional, cell-based.

Sequence of FAD-linked sulfhydryl oxidase ALR (P55789 whole entry, the tested form may be a part): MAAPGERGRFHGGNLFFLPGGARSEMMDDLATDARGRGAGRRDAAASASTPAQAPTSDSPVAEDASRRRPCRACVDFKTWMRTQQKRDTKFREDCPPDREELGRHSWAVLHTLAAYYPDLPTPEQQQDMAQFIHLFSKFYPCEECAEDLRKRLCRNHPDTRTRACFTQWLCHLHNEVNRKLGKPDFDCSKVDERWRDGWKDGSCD

In the case of `O=C(NCCc1ccc(F)cc1)c1[nH]nc2ccccc12`, the figures for the EC50 (in test [1]; in [2]; in the test with H4) were 17.8 µM (active), 42 µM (active) and 24.5 µM (active), respectively.

As to `C[C@@H]1CC=C[C@H]2[C@H]1C(=O)N(Cc1ccccc1)[C@H]2c1ccc(-c2cc3ccccc3s2)cc1F`, the EC50 is 0.251 µM (active) in test [1], 61.8 µM (active) in test [2] and 0.11 µM (active) in the test on H4.

For `Cc1ccc(S(=O)(=O)Cc2ccc(C(=O)N3CCN(c4ccc(F)cc4)CC3)o2)cc1`, the EC50 in test [3] was 9.74 µM (active); in test [4], 10.1 µM (active).

In the case of `Cc1ccc2c(c1)c1c3n2CCN(C(=O)CN2CCN(C)CC2)C3CCC1` (stereo not given), the EC50 in test [3] is 16.1 µM (active); in test [4], 16.7 µM (active).

Turning to `CC(CNC(=O)c1ccc(OC2CCN(Cc3ccccn3)CC2)cc1)c1ccccc1` (stereo not given), the figures for the EC50 (in [1]; in test [2]; in the test on H4) were 18.2 µM (active), 53.8 µM (active) and 35.6 µM (active), respectively.

For the compound `COc1cc2nc3c(O)n4c(nc-3c2cc1OC)SCCC4`, the EC50 is > 120 µM (not active) in [1], 3.61 µM (active) in test [2], 24.5 µM (active) in the test with H4 and > 53 µM (inactive) in [6]. Moreover, the IC50 in test [5] is 3.83 µM (active); in [7], > 20 µM (inactive).

A word on the AC50: it is the concentration at which the activity in the assay is half-maximal. Regarding `C=CC[n+]1c(-c2ccc(C)cc2)csc1Nc1ccc(NC(C)=O)cc1`, the EC50 is 2.34 µM (active) in test [8], 0.238 µM (active) in test [9] and 0.246 µM (active) in test [11]. In addition, the AC50 in [10] was 1.57 µM (active).

On to `CCCNc1ccc(C(=O)OCC)cc1[N+](=O)[O-]`, for which the IC50 was 17.6 µM (active) in test [5] and > 20 µM (inactive) in test [7]. Also, the EC50 in test [6] was > 53 µM (inactive).

As to `NC(=NOC(=O)Nc1ccccc1)c1ncc([N+](=O)[O-])s1`, the EC50 (in [1]; in test [2]; in the test with H4) was > 120 µM (not active) in each case.

Regarding `COc1ccc(N2C(=O)CSC2c2ccc([N+](=O)[O-])cc2)cc1` (stereo not given), the AC50 in test [12] was 5.9 µM (active). Further, the IC50 in test [5] was 46.8 µM (active); in test [7], 6.91 µM (active). The EC50 in [6] is > 53 µM (inactive).

For `CCN(CC)C(=O)[C@H]1CC(CC(=O)NC/C=C(\C)CCC=C(C)C)C(=O)N2CCc3c([nH]c4ccc(OC)cc34)[C@]12C` (stereo not given in full), the IC50 in [5] was 3.54 µM (active); in test [7], 1.33 µM (active). In addition, in test [6], the EC50 was > 53 µM (inactive).

In the case of `COc1ccc(-c2ccc3c(c2)[C@@H]2[C@@H](CCN2C(=O)NC2CCCC2)[C@H](CO)N3C)cc1`, the AC50 is 26.5 µM (active) in test [13] and 2.83 µM (active) in test [14].

`CN1C(=O)c2cc(NC(=O)c3cscn3)ccc2OC[C@@H]2O[C@@H](CC(=O)NCc3ccc(Cl)c(Cl)c3)CC[C@H]21`: the half-maximal activity concentration (AC50) in test [13] was 48.6 µM (active); in test [14], 3.19 µM (active).

With `C[C@@H]1CN([C@@H](C)CO)C(=O)c2cc(NC(=O)Nc3ccc4c(c3)OCO4)ccc2O[C@H]1CN(C)C(=O)Nc1cccc2ccccc12`, the AC50 in test [15] is 4.89 µM (active).

With `C[C@H]1CN([C@@H](C)CO)C(=O)c2c(c3ccccc3n2C)-c2ccccc2CO[C@H]1CN(C)S(=O)(=O)c1ccccc1C#N`, in test [15], the AC50 was 5 µM (active).

With `CCCC(=O)Nc1ccc2c(c1)OC[C@@H](C)N(Cc1cc(-c3ccccc3)on1)C[C@@H](C)[C@H](OC)CN(C)C2=O`, the AC50 in test [15] was 5.19 µM (active).

As to `COCC(=O)N1CC2(C1)CN(Cc1cccc(Cl)c1)[C@@H](CO)c1[nH]c3cc(OC)ccc3c12`, in test [15], the AC50 is 12.9 µM (active).

For `CS(=O)(=O)N1[C@H](C#N)[C@H](c2ccccc2-c2ccc(F)cc2)[C@H]1CO`, the AC50 in test [15] was 16.6 µM (active).
